What is called pIC50 is the IC50 on a negative log10 scale, so that one unit is a factor of ten. As a reminder, the pKi is the Ki on a negative log10 scale, so that one unit is a factor of ten.

SMILES strings stand for the structures. pIC50, pKi: −log10 of the molar value.

The test system of experiment [1] is JAK1-dependent STAT6 phosphorylation downstream of IL-13 stimulation in BEAS-2B human bronchial epithelial cells. Kind of experiment: JAK1 pathway assay in BEAS-2B cells (IL-13 stimulated STAT6 phosphorylation, MSD). Format: cell-based. As to conditions: read-out: P-STAT6 BEAS2B + IL13 IC50. In short, it runs like this:
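BEAS-2B human bronchial epithelial cells, plated the day before in complete growth medium, were preincubated with compound for 1 hr at 37° C (0.2% DMSO final), then stimulated with IL-13 at its EC90 for 15 min. STAT6 phosphorylation in lysates was read by MSD; EC50 was taken as 50% inhibition versus DMSO control.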

The target in experiment [2] is T1, isolated recombinant JAK2 kinase domain (Homo sapiens, UniProt O60674).
T1 construct: The activity of the isolated recombinant JAK1 and JAK2 kinase domain was measured
The experiment is described as follows: JAK2 enzyme assay (Caliper LabChip, Ki). The experiment is classed as biochemical. As to conditions: 25 μM ATP. Summed up:
(§1)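 Values are Ki estimates derived with the Morrison tight-binding equation modified for competition with ATP. Activity of the recombinant kinase domains was measured as peptide phosphorylation on a Caliper LabChip after a 30-minute, 22° C reaction terminated by EDTA.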

The target of experiment [3] is T2, isolated recombinant JAK1 kinase domain (Homo sapiens, UniProt P23458).
T2 construct: The activity of the isolated recombinant JAK1 and JAK2 kinase domain was measured
Kind of experiment: JAK1 enzyme assay (Caliper LabChip, Ki). The experiment is classed as biochemical. As to conditions: recombinant JAK1 kinase domain, 25 μM ATP. Summed up: as §1

T1 sequence (O60674 849-1124 limits assumed): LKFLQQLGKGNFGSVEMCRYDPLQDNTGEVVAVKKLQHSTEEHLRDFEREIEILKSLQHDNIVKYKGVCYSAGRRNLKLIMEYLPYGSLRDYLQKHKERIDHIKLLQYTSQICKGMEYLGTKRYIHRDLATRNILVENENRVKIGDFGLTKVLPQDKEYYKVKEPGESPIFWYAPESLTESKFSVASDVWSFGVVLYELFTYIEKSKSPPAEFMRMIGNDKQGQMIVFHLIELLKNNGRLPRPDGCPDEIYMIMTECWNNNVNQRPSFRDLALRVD
T2 sequence (P23458 875-1153 limits assumed): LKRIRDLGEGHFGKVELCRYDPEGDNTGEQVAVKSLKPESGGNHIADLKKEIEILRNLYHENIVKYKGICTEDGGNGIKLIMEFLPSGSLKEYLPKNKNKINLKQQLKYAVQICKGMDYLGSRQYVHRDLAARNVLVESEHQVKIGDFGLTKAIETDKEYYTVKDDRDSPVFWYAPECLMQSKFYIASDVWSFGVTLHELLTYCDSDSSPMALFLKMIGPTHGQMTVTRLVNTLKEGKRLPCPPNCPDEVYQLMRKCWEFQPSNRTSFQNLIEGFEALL

For the molecule `CSc1ccc(OC(F)F)c(-c2nn(CC(=O)N3CCC(N(C)C4COC4)CC3)cc2NC(=O)c2cnn3cccnc23)c1` [Example 46, N-(3-(2-(difluoromethoxy)-5-(methylthio)phenyl)-1-(2-(4-(methyl(oxetan-3-yl)amino)piperidin-1-yl)-2-oxoethyl)-1H-pyrazol-4-yl)pyrazolo[1,5-a]pyrimidine-3-carboxamide], the negative-log IC50 (pIC50) in experiment [1] was 7.66. Further, the pKi in experiment [2] was 9.36; in experiment [3], 9.60.
On to `CSc1ccc(OC(F)F)c(-c2nn(CC(=O)N3CCC(N4CCC[C@H]4C(=O)N(C)C)CC3)cc2NC(=O)c2cnn3cccnc23)c1` [Example 47, N-[3-[2-(difluoromethoxy)-5-methylsulfanyl-phenyl]-1-[2-[4-[(2S)-2-(dimethylcarbamoyl)pyrrolidin-1-yl]-1-piperidyl]-2-oxo-ethyl]pyrazol-4-yl]pyrazolo[1,5-a]pyrimidine-3-carboxamide], for which the pIC50 in experiment [1] was 6.46. The results for the pKi in experiment [2] and in experiment [3] were 8.89 and 9.28, respectively.
Regarding `CSc1ccc(OC(F)F)c(-c2nn(CC(=O)N3CCC(N4CC[S+]([O-])CC4)CC3)cc2NC(=O)c2cnn3cccnc23)c1` [Example 48, N-[3-[2-(difluoromethoxy)-5-methylsulfanyl-phenyl]-1-[2-oxo-2-[4-(1-oxo-1,4-thiazinan-4-yl)-1-piperidyl]ethyl]pyrazol-4-yl]pyrazolo[1,5-a]pyrimidine-3-carboxamide], the pIC50 in experiment [1] was 6.39. The pKi in experiment [2] was 9.36; in experiment [3] it was 9.54.
As to `CSc1ccc(OC(F)F)c(-c2nn(CC(=O)N3CCC(N(C)[C@H]4CCOC4)CC3)cc2NC(=O)c2cnn3cccnc23)c1` [Example 49, N-[3-[2-(difluoromethoxy)-5-methylsulfanyl-phenyl]-1-[2-[4-[methyl-[(3S)-tetrahydrofuran-3-yl]amino]-1-piperidyl]-2-oxo-ethyl]pyrazol-4-yl]pyrazolo[1,5-a]pyrimidine-3-carboxamide], the pIC50 in experiment [1] was 7.82. Besides, the pKi in experiment [2] is 9.21; in experiment [3], 9.55.
In the case of `CSc1ccc(OC(F)F)c(-c2nn(CC(=O)N3CCC(N(C)CC4OCCO4)CC3)cc2NC(=O)c2cnn3cccnc23)c1` [Example 50], the pIC50 in experiment [1] was 7.74. In addition, the values for the pKi in experiment [2] and in experiment [3] were 9.02 and 9.30, respectively.
Take `CSc1ccc(OC(F)F)c(-c2nn(CC(=O)N3CCC(N(C)CC4(C)OCCO4)CC3)cc2NC(=O)c2cnn3cccnc23)c1` [Example 51, N-[3-[2-(difluoromethoxy)-5-methylsulfanyl-phenyl]-1-[2-[4-[methyl-[(2-methyl-1,3-dioxolan-2-yl)methyl]amino]-1-piperidyl]-2-oxo-ethyl]pyrazol-4-yl]pyrazolo[1,5-a]pyrimidine-3-carboxamide]: the pIC50 in experiment [1] was 7.59. Further, the figures for the pKi in experiment [2] and in experiment [3] were 9.01 and 9.37, respectively.
For `CNC(=O)[C@@H]1CCCN1C1CCN(C(=O)Cn2cc(NC(=O)c3cnn4cccnc34)c(-c3cc(SC)ccc3OC(F)F)n2)CC1` [Example 52, N-[3-[2-(difluoromethoxy)-5-methylsulfanyl-phenyl]-1-[2-[4-[(2S)-2-(methylcarbamoyl)pyrrolidin-1-yl]-1-piperidyl]-2-oxo-ethyl]pyrazol-4-yl]pyrazolo[1,5-a]pyrimidine-3-carboxamide], in that order: 7.37, 9.36 and 9.54.
Consider `CSc1ccc(OC(F)F)c(-c2nn(CC(=O)N3CCN(C4CCOCC4)CC3)cc2NC(=O)c2cnn3cccnc23)c1` [Example 53, N-[3-[2-(difluoromethoxy)-5-methylsulfanyl-phenyl]-1-[2-oxo-2-(4-tetrahydropyran-4-ylpiperazin-1-yl)ethyl]pyrazol-4-yl]pyrazolo[1,5-a]pyrimidine-3-carboxamide], for which, in experiment [1], the pIC50 is 7.92. In addition, the values for the pKi in experiment [2] and in experiment [3] were 9.49 and 9.57, respectively.
For `CSc1ccc(OC(F)F)c(-c2nn(CC(=O)N3CCN(C4CCOC4)CC3)cc2NC(=O)c2cnn3cccnc23)c1` (stereo not drawn) [Example 54, N-[3-[2-(difluoromethoxy)-5-methylsulfanyl-phenyl]-1-[2-oxo-2-(4-tetrahydrofuran-3-ylpiperazin-1-yl)ethyl]pyrazol-4-yl]pyrazolo[1,5-a]pyrimidine-3-carboxamide], in that order: 7.92, 9.51 and 9.64.
For `CSc1ccc(OC(F)F)c(-c2nn(CC(=O)N3CCC(N4CCC[C@H](C#N)C4)CC3)cc2NC(=O)c2cnn3cccnc23)c1` [Example 55, N-[1-(2-[4-[(3 S)-3-cyanopiperidin-1-yl]piperidin-1-yl]-2-oxoethyl)-3-[2-(difluoromethoxy)-5-(methylsulfanyl)phenyl]-1H-pyrazol-4-yl]pyrazolo[1,5-a]pyrimidine-3-carboxamide], in that order: 7.96, 9.28 and 9.57.
In the case of `CSc1ccc(OC(F)F)c(-c2nn(CC(=O)N3C[C@@H]4CCN[C@@H]4C3)cc2NC(=O)c2cnn3cccnc23)c1` [Example 56, N-[1-[2-[(3aS,6aS)-2,3,3a,4,6,6a-hexahydro-1H-pyrrolo[2,3-c]pyrrol-5-yl]-2-oxo-ethyl]-3-[2-(difluoromethoxy)-5-methylsulfanyl-phenyl]pyrazol-4-yl]pyrazolo[1,5-a]pyrimidine-3-carboxamide], the pIC50 in experiment [1] was 7.08. In addition, the pKi in experiment [2] was 9.32; in experiment [3], 9.39.
For `CSc1ccc(OC(F)F)c(-c2nn(CC(=O)N3CCC(N4CCOC[C@H]4C)CC3)cc2NC(=O)c2cnn3cccnc23)c1` [Example 57, N-[3-[2-(difluoromethoxy)-5-methylsulfanyl-phenyl]-1-[2-[4-[(3R)-3-methylmorpholin-4-yl]-1-piperidyl]-2-oxo-ethyl]pyrazol-4-yl]pyrazolo[1,5-a]pyrimidine-3-carboxamide], in that order: 7.74, 9.37 and 9.59.
For `CSc1ccc(OC(F)F)c(-c2nn(CC(=O)N3CCC(N4CCC[C@@H](C#N)C4)CC3)cc2NC(=O)c2cnn3cccnc23)c1` [Example 58, N-[1-(2-[4-[(3R)-3-cyanopiperidin-1-yl]piperidin-1-yl]-2-oxoethyl)-3-[2-(difluoromethoxy)-5-(methylsulfanyl)phenyl]-1H-pyrazol-4-yl]pyrazolo[1,5-a]pyrimidine-3-carboxamide], in that order: 7.89, 9.48 and 9.70.
Regarding `CSc1ccc(OC(F)F)c(-c2nn(CC(=O)N3CCC(N4CC(C#N)C4)CC3)cc2NC(=O)c2cnn3cccnc23)c1` [Example 59, N-[1-[2-[4-(3-cyanoazetidin-1-yl)-1-piperidyl]-2-oxo-ethyl]-3-[2-(difluoromethoxy)-5-methylsulfanyl-phenyl]pyrazol-4-yl]pyrazolo[1,5-a]pyrimidine-3-carboxamide], the pIC50 in experiment [1] is 7.82. The pKi in experiment [2] was 9.47; in experiment [3], 9.70.
For `CSc1ccc(OC(F)F)c(-c2nn(CC(=O)N3CCC(N(C)[C@@H]4CCOC4)CC3)cc2NC(=O)c2cnn3cccnc23)c1` [Example 60, N-[3-[2-(difluoromethoxy)-5-methylsulfanyl-phenyl]-1-[2-[4-[methyl-[(3R)-tetrahydrofuran-3-yl]amino]-1-piperidyl]-2-oxo-ethyl]pyrazol-4-yl]pyrazolo[1,5-a]pyrimidine-3-carboxamide], in that order: 7.85, 9.28 and 9.51.
For `CSc1ccc(OC(F)F)c(-c2nn(CC(=O)N3CCC(N4CCOC[C@@H]4C)CC3)cc2NC(=O)c2cnn3cccnc23)c1` [Example 61, N-[3-[2-(difluoromethoxy)-5-methylsulfanyl-phenyl]-1-[2-[4-[(3S)-3-methylmorpholin-4-yl]-1-piperidyl]-2-oxo-ethyl]pyrazol-4-yl]pyrazolo[1,5-a]pyrimidine-3-carboxamide], in that order: 7.89, 9.32 and 9.60.
As for `CSc1ccc(OC(F)F)c(-c2nn(CC(=O)N3CCC(N4CCS(=O)(=O)CC4)CC3)cc2NC(=O)c2cnn3cccnc23)c1` [Example 62, N-[3-[2-(difluoromethoxy)-5-methylsulfanyl-phenyl]-1-[2-[4-(1,1-dioxo-1,4-thiazinan-4-yl)-1-piperidyl]-2-oxo-ethyl]pyrazol-4-yl]pyrazolo[1,5-a]pyrimidine-3-carboxamide], in experiment [1], the pIC50 was 6.80. For the same molecule, the pKi in experiment [2] is 9.42; in experiment [3], 9.57.
For `CSc1ccc(OC(F)F)c(-c2nn(CC(=O)N3CCC(N4CCN(C)CC4)CC3)cc2NC(=O)c2cnn3cccnc23)c1` [Example 63, N-[3-[2-(difluoromethoxy)-5-(methylsulfanyl)phenyl]-1-[2-[4-(4-methylpiperazin-1-yl)piperidin-1-yl]-2-oxoethyl]-1H-pyrazol-4-yl]pyrazolo[1,5-a]pyrimidine-3-carboxamide], in that order: 7.66, 9.15 and 9.46.
For `CSc1ccc(OC(F)F)c(-c2nn(CC(=O)N3CCC(NCCCC#N)CC3)cc2NC(=O)c2cnn3cccnc23)c1` [Example 64, N-[1-[2-[4-(3-cyanopropylamino)-1-piperidyl]-2-oxo-ethyl]-3-[2-(difluoromethoxy)-5-methylsulfanyl-phenyl]pyrazol-4-yl]pyrazolo[1,5-a]pyrimidine-3-carboxamide], in that order: 7.28, 9.32 and 9.48.
